Data as given in patent EP4563571A1, “PRMT5 INHIBITORS” (Beijing Earthwise Technology Co., Ltd., priority 2022, dated 2024).

Assays:
[1] = system: SDMA in HCT116^MTAP Deletion; assay: In-Cell Western Assay of cellular SDMA; assay type: cell-based; details: HCT116^MTAP Deletion cells, 96 hours; read-out: SDMA inhibition IC50 (µM) in HCT116^MTAP Deletion
Procedure: (§1) Compound dissolution: All the compounds were dissolved in dimethyl sulfoxide (DMSO) and then stored. The compounds were stored at -20°C for long term storage.
(§2) 2.3 Cell culture and passaging
The cells were cultured strictly in accordance with ATCC requirements. […] The supernatant was removed. The cells were resuspended with complete culture medium, inoculated into a culture dish at the required density, and cultured in an incubator at 37 °C, 95% humid air, and 5% carbon dioxide. The culture medium was replenished or the cells were passaged every 2-3 days depending on the cell growth condition.
2.4 In-Cell Western Assay of SDMA
When the confluency of cells in the culture dish reached about 90%, the cells were washed twice with PBS, and then digested with trypsin. 100 µl of the cells was inoculated into each well of a 96-well plate (800 cells/well). The plate was incubated overnight in a 37 °C and 5% CO2 incubator. 50 µL of 3x final concentration of a compound was added to the cell culture plate. Each compound was subjected to a 3-fold dilution, resulting in 10 concentration gradients, in duplicate, and the final concentration of DMSO was 0.5%. The plate was incubated in a 37 °C and 5% CO2 incubator for 96 hours.
150µL of 8% paraformaldehyde was added to each well, and the plate was incubated at room temperature for 15 minutes. The supernatant was discarded. The plate was washed with PBS, and 200µL of freshly prepared 1x Permeabilization buffer was added to each well. The plate was incubated at room temperature for 30 minutes. The supernatant was discarded. 200µL of 1x Blocking buffer was added to each well, and the plate was incubated at room temperature for 2 hours. The supernatant was discarded. 50µL of primary antibody (CST, 1x Incubation buffer 1:500 dilution) was added to each well, and the plate was incubated at 4°C overnight. The supernatant was discarded. 250µL of 1x Washing buffer was added to each well, and the plate was washed three times. 50µL of secondary antibody (IRDye 800CW Goat anti-Rabbit IgG and CellTag 700 dye, 1:800 and 1:500 diluted in Incubation buffer) was added to each well, and the plate was incubated at room temperature for 1 hour. The supernatant was discarded. The plate was washed with 1x Washing buffer. Signals were detected using Licor Odyssey CLX. […] According to the different drug concentrations and their corresponding inhibition rates, the IC50 curve was drawn using GraphPad 8.0 software. The data were analyzed, and the final IC50 value was obtained. […] Table 3 Inhibitory activity on cellular SDMA

[2] = system: HCT116^MTAP Deletion cells; assay: Anti-proliferation assay on cells (Cell-Titer Glo, 10 days); assay type: cell-based; details: HCT116^MTAP Deletion cells, 10 days incubation, CTG readout; read-out: HCT116^MTAP Deletion GI50
How it was run: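 HCT116^MTAP Deletion cells seeded at 50 cells/well and exposed to 10-point 3-fold compound dilutions in duplicate (0.1% DMSO) for 10 days at 37 °C. Viability read by CellTiter-Glo luminescence; IC50 derived from GI50 curves of concentration versus inhibition.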

HCT116 cells = assay: as above; assay type: cell-based; details: ratio of GI50 values
Procedure: Assay example 1: Method of anti-proliferation assay on cells
HCT116^MTAP Deletion cells were from Pharmaron (China); HCT116 cells were from ATCC; McCoy's 5A medium was purchased from Invitrogen (USA); penicillin-streptomycin and fetal bovine serum were purchased from Gibco (USA); a 384-well plate was purchased from PerkinElmer (USA); and Cell-Titer Glo reagent was purchased from Promega (USA).
Compound dissolution: All the compounds were dissolved in dimethyl sulfoxide (DMSO) and then stored. The compounds were stored at room temperature in a dry condition for 3 months for short term storage or at -20 °C for long term storage.
Cell culture and passaging
The cells were cultured strictly in accordance with ATCC requirements. The cell culture medium (McCoy's 5A medium + 10% fetal bovine serum + 1% penicillin + streptomycin) was transferred to a 15 mL centrifuge tube and centrifuged at 1000 rpm for 5 min. The supernatant was removed. The cells were resuspended with complete culture medium, inoculated into a culture dish at the required density, and cultured in an incubator at 37 °C, 95% humid air, and 5% carbon dioxide. The culture medium was replenished or the cells were passaged every 2-3 days depending on the cell growth condition.
Cell proliferation activity assay
When the confluency of cells in the culture dish reached about 90%, the cells were washed twice with PBS, and then treated with trypsin to become single cells. The cells were counted, and 40µl of the cells was inoculated into each well of a 384-well plate (50 cells/well). The plate was equilibrated at 37 °C and 5% carbon dioxide for 10 to 15 minutes. The compounds were injected into the 384-well plate using Echo550, and positive control and negative control (0.1% DMSO) were set up. Each compound was subjected to a 3-fold dilution, resulting in 10 concentration gradients, in duplicate, and the content of DMSO was 0.1%. The 384-well plate was incubated in a cell culture incubator for 10 days.
Then, 40 µl of cell proliferation assay reagent (CTG) was added to the 384-well plate, and the plate was shaken to mix well. Then, the 384-well plate was incubated at 37 °C and 5% carbon dioxide in the dark for 30 minutes. The data were read using the Envision multifunctional microplate reader. […] According to the different drug concentrations and their corresponding inhibition rates, the GI50 curve was drawn using GraphPad 8.0 software. The data were analyzed, and the final IC50 value was obtained.
In addition, the compounds of the present disclosure also have selectivity for mutant HCT116 cells. […] The selectivity data of representative compounds are shown in Table 2: Table 2 Selectivity data of representative compounds

[3] = Brain permeability in CD1 mice after oral gavage administration; assay type: in vivo, Mouse/CD1/Male; parameters: unit not given here; details: 30 mg/kg PO, 0.25-8 hours
Procedure: Assay example 4 Investigation of brain permeability in CD1 mice after oral gavage administration
4.1.1 Information of administration
4.1.3 Collection and processing of blood sample
4.1.4 Evaluation during the in vivo experiment
4.2 Test sample and preparation
4.2.1 Information of test sample
All the samples were analyzed by LC-MS/MS, and the concentration of the drug to be tested in the samples was determined by the standard curve method.
For the plasma assay results, the pharmacokinetic parameters were calculated using WinNonlin (Phoenix™) or other similar software.

SDMA in HCT116 = assay: In-Cell Western Assay of cellular SDMA; assay type: cell-based; details: HCT116 cells, 96 hours; read-out: SDMA inhibition IC50 (µM) in HCT116
Source text: Assay example 2: Method of In-Cell Western Assay of cellular SDMA
HCT116^MTAP Deletion cells were from Horizon; HCT116 cells were from ATCC; RPMI-1640 medium was purchased from ATCC (USA); penicillin-streptomycin was purchased from Gibco (USA); fetal bovine serum was purchased from ExCell; 96-well plate was purchased from Corning (USA); Symmetric Di-Methyl Arginine Motif [sdme-RG] antibody was purchased from CST (USA); IRDye 800CW Goat anti-Rabbit IgG secondary antibody was purchased from LI-COR (USA), and CellTag 700 stain was purchased from LI-COR (USA).
as §1, §2
The cells were cultured strictly in accordance with ATCC requirements. The cell culture medium (RPMI-1640 medium + 10% serum + 1% penicillin + streptomycin) was transferred to a 15 mL centrifuge tube and centrifuged at 1000 rpm for 5 min. The supernatant was removed. […]
150µL of 8% paraformaldehyde was added to each well, and the plate was incubated at room temperature for 15 minutes. […] Signals were detected using Licor Odyssey CLX. […] The data were analyzed, and the final IC50 value was obtained. […]

IC50 [1]	GI50 [2]	Selectivity multiple of HCT116^MTAP WT GI50/ HCT116^MTAP Deletion GI50 (HCT116 cells)	Brain AUClast/D ([3]; brain)	CSF AUClast/D ([3]; cerebrospinal fluid)	Plasma AUClast/D ([3]; plasma)	IC50 (SDMA in HCT116)	Compound
< 0.01 µM	< 10 nM	266	–	–	–	–	CN(C(=O)C(=O)Nc1cnc(N)c2c1cnn2C)C1COCc2cc(C3=CCOCC3)ccc21 (stereo not shown) [Example 132-P1]
< 0.01 µM	< 10 nM	385	428	6.15	464	0.1 to 1 µM	CN(C(=O)C(=O)Nc1cnc(N)c2c1cnn2C)C1COc2cc(C(F)(F)F)ccc21 (single isomer, unassigned) [Example 112-P1]
< 0.01 µM	< 10 nM	285	–	–	–	–	Cc1ncc(-c2ccc3c(c2)COCC3N(C)C(=O)C(=O)Nc2cnc(N)c3c2cnn3C)s1 (stereo not shown) [Example 135]
